Consider two compounds from publication PMC6501426 (Clinical Epigenetics, 2019).

Assay [1] concerns MMP2 mRNA in HCT116 cells. The experiment in a line: qPCR of MMP2 in HCT116. It counts as cell-based, human. The settings on record: MC3353 0.1 and 1 μM 24 h; 5-AZA, DAC 5 days, also at 0.1 to 1 μM. The text has this:
(§1) RNAs were extracted by ReliaPrep™ RNA Tissue Miniprep (Promega, Madison, WI, USA) and reverse transcribed with PrimeScript RT Master Mix (Takara, Kusatsu, Shiga, Japan). cDNAs were amplified by a qPCR reaction using GoTaq qPCR Master Mix (Promega) and analyzed with the oligonucleotide pairs specific for the target genes. Relative amounts, determined with the 2^(−ΔCt) method, were normalized with respect to the human housekeeping gene L32. The primers used are as follows: L32 (forward: 5′-[…]-3′, reverse: 5′-[…]-3′), E-cadherin (forward: 5′-[…]-3′, reverse: 5′-[…]-3′), and MMP2 (forward: 5′-[…]-3′, reverse: 5′-[…]-3′).
(§2) Prompted by these findings, we investigated the ability of MC3353 to modulate EMT pathway, using 5-AZA and DAC as reference drugs. […] The levels of mRNA transcripts of E-cadherin and matrix metalloproteinase-2 (MMP2) were determined. E-cadherin is involved in the maintenance of the epithelial identity and in the control of tumor invasiveness, whereas MMP2, through degradation of type IV collagen, the most abundant component of the basement membrane, controls an essential step for metastatic progression of most cancers as well as for induction of angiogenesis.
In general terms: Real-time PCR tracks product formation cycle by cycle.

The subject of assay [2] is methylated UCHL1 promoter EGFP reporter in HCT116 cells. The experiment in a line: UCHL1 promoter demethylation assay (EGFP expression, FACS) in HCT116. It counts as cell-based, human. The settings on record: 5 μM, 5 days, HCT116 with methylated pUCHL1 vector. The method, then:
Human colon cancer HCT116 (ATCC, VA, USA) cells were propagated in McCoy’s 5A medium (Euroclone, Milan, Italy) with 10% fetal bovine serum (FBS; Euroclone), 2 mM L-glutamine (Euroclone), and antibiotics (100 U/mL penicillin, 100 µg/mL streptomycin) (Euroclone). For the treatments with MC3353, 5-AZA, and DAC as positive controls, 2 × 10^4 cells were seeded in 6-well plates in triplicate. Cells were treated every 2 days, and the medium was changed. On day 5, cells were observed under a fluorescent microscope. The nuclei were counterstained with DAPI (10 μg/mL, Invitrogen, Tournai, Belgium).
Fluorescence of EGFP and DAPI in living cells was analyzed by Cytation™ 5 Cell Imaging Multi-Mode Reader (BioTeK, Milan, Italy).
Before the transfection, the pUMLIEP vector was linearized by with ClaI restriction enzyme (New England Biolabs, Milan, Italy) and then it was methylated by SssI-methylase (New England Biolabs, Milan, Italy) for 60 min. The methylated vector was transfected into HCT116 cells using Lipofectamine™2000 (Invitrogen, Monza, Italy) and Opti-MEM® (Gibco, Monza, Italy), and stably introduced clones were selected with puromycin (1.0 μg/mL, Sigma-Aldrich, Milan, Italy). The detailed protocol for the generation of cells highly responsive to DNA demethylating agents is described in [27].
Next, the demethylating activity of MC3353 was evaluated in cells transfected with luciferase and EGFP reporter genes driven by the UCHL1 promoter. The UCHL1 promoter is silenced by methylation in human colon cancer and can be demethylated by specific treatments, inducing expression of Metridia luciferase and EGFP reporter genes. In particular, the pUCHL1 vector, after methylation, was transfected into HCT116 colon cancer cells, and the stable clone was obtained by puromycin selection. Afterwards, cells were treated with 5-AZA (5 μM), with DAC (5 μM), or with MC3353 (0.1 μM) for 5 days. Such a low MC3353 dose was used because of its cytotoxicity at higher concentrations in long treatments.

The next assay concerns HCT116 cells. The experiment in a line: MTT proliferation assay HCT116. It counts as cell-based, human. The following applies: 24 and 48 h; MC3353 from 0.5 μM after 48 h; DAC at 10 μM. The method, then:
(§3) The MTT [3-(4,5-dimethylthiazol-2-yl)-2,5-diphenyltetrazolium bromide] (Sigma-Aldrich, Milan, Italy) assay was used to determine the proliferation of HCT116 clone and DKO HCT116 cells after treatment with MC3353, 5-AZA, and DAC. 5 × 10^4 cells/well for both cell lines were plated in 24-well plate and treated, in duplicate, with compounds at several concentrations for 24 and 48 h of induction. After treatments, MTT solution was added for 3 h at 0.5 mg/mL, the purple formazan crystals were dissolved in DMSO (Sigma-Aldrich, Milan, Italy), and the absorbance was read at a wavelength of 570 nm with reader TECAN M-200.
(In general: Tetrazolium dyes change colour on reduction, which living cells bring about.)

In a further assay the test system is MMP2 mRNA in PC-3 cells. The experiment in a line: qPCR of MMP2 in PC-3. The following applies: MC3353 0.1 and 1 μM 24 h; 5-AZA, DAC 5 days, also at 0.1 to 1 μM. It is filed as cell-based, human.
From the text: as §1, §2

Assay [3] concerns double DNMT knockout (DKO) HCT116 cells. The assay is described as follows: MTT proliferation assay DKO HCT116. It counts as cell-based, human. The following applies: 24 and 48 h; MC3353 at 0.5 μM after 48 h; DAC, 5-AZA up to highest dose. The method, then: DKO HCT116 (ATCC, VA, USA) cells were propagated in Dulbecco’s modified Eagle medium (DMEM) (Euroclone, Milan, Italy) with 10% fetal bovine serum (FBS; Euroclone, Milan, Italy), 2 mM L-glutamine (Euroclone, Milan, Italy) and antibiotics (100 U/mL penicillin, 100 µg/mL streptomycin) (Euroclone, Milan, Italy).
as §3

In assay [4] the test system is E-cadherin mRNA in HCT116 cells. The experiment in a line: qPCR of E-cadherin in HCT116. It counts as cell-based, human. The settings on record: MC3353 0.1 μM 24 h; 5-AZA, DAC every 2 days for 5 days at 0.1, 1, 5 μM.
From the text: as §1, §2

Assay [5] relates to E-cadherin mRNA in PC-3 cells. The assay is described as follows: qPCR of E-cadherin in PC-3. It counts as cell-based, human. The following applies: MC3353 24 h; 5-AZA, DAC 5 days, effect from 1 to 5 μM.
From the text: as §1, §2

The target of another assay is T1, human DNMT1 (Homo sapiens, UniProt P26358).
T1 construct: His; made in house
T1 sequence (P26358 whole entry): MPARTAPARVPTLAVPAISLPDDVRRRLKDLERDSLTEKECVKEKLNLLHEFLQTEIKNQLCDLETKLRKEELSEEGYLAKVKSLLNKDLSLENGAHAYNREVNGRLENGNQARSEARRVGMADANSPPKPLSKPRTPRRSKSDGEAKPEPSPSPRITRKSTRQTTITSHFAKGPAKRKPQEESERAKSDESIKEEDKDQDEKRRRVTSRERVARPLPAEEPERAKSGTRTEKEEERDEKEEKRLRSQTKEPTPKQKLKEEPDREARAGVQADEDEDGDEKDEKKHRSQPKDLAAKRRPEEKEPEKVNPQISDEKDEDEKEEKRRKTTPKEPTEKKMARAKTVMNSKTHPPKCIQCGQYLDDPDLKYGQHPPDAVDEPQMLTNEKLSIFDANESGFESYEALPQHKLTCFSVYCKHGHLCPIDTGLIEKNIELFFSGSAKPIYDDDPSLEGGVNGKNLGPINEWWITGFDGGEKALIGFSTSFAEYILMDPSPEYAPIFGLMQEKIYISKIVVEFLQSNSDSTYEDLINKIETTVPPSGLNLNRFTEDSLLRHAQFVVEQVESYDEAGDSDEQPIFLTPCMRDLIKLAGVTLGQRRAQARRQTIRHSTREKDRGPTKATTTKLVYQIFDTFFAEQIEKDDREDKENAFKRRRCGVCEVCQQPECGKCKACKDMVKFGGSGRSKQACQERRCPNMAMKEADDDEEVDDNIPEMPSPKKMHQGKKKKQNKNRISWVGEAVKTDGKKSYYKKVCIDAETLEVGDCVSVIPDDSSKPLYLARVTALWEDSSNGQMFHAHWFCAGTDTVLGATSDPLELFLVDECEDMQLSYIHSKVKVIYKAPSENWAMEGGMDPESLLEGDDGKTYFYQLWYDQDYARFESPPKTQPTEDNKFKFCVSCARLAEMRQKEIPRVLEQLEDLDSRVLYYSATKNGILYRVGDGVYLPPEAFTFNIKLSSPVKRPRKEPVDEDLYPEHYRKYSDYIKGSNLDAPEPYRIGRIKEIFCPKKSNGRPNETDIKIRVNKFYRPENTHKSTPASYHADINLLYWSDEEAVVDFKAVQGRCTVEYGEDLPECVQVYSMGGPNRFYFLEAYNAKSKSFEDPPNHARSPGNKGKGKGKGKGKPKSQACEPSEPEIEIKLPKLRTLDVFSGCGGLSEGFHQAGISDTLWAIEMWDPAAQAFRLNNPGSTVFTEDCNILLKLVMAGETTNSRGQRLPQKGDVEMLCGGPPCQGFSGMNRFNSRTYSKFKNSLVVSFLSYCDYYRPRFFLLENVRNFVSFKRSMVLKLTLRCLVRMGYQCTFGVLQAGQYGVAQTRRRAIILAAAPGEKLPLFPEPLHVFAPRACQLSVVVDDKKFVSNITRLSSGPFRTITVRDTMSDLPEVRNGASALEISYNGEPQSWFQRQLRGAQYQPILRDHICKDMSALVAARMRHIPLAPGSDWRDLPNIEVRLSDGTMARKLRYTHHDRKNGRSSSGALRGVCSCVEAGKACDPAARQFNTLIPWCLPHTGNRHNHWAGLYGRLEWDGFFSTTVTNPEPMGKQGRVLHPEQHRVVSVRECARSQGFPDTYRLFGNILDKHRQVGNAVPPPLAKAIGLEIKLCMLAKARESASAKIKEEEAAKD
The assay is described as follows: DNMT1 assay (radiolabeled SAM, Flashplate). It is filed as biochemical. The following applies: radioactivity assay; at least two independent experiments; read-out: EC50 ± SD, hDNMT1. The method, then: His-DNMT1 (182 kDa, human) was cloned, expressed, and purified as described by Lee et al.. The DNMT1 assay was performed according to Gros et al.. Briefly, the DNMT1 enzymatic assay is based on the use of radiolabeled SAM, and the methylation occurs in homogeneous phase in 384-well microplates. The reaction is performed with DNMT1 at the final concentration of 90 nM in a total volume of 10 μL including also the chemical compound to be tested at the desired concentration, 1.25 μM of SAM//[methyl-^3H] SAM (3TBq/mmol) mix in a ratio of 3:1 and 0.3 μM of biotinylated DNA duplex. DNMT1, as “maintenance” methyltransferase, requires hemimethylated DNA for the reaction. After 2 h incubation at 37 °C, 8 μL of the reaction’s solution is transferred into a streptavidin 96-well scintillant coated Flashplate^TM containing 190 μL of […] in 50 mM Tris-HCl (pH 7.4). The Flashplate^TM is then agitated at room temperature for 1 h and washed. The plate is read with TopCount (PerkinElmer, Villebon-sur-Yvette, France). The greater the DNMT1 inhibition, the lower will be the scintillation signal correlated to the incorporation of the tritiated methyl groups. In this assay, the negative and positive controls were defined as wells without enzyme and wells without any compound but just DMSO, respectively.

For a further assay, the target named is T2, human C-terminal DNMT3A (Homo sapiens, UniProt Q9Y6K1).
T2 construct: the C-terminal catalytic domain of human DNMT3A (hDNMT3A)
T2 sequence (Q9Y6K1 634-912 limits assumed): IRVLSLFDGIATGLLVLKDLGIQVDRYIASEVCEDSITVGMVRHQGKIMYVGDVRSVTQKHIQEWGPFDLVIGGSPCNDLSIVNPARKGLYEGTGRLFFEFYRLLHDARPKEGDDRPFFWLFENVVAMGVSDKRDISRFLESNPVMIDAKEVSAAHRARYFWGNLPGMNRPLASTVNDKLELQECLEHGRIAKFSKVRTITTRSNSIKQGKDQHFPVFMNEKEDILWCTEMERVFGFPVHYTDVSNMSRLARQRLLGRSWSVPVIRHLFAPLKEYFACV
The assay is described as follows: DNMT3A restriction-based fluorescence assay. The settings on record: fluorescent assay; C-terminal catalytic domain; read-out: EC50 ± SD, hDNMT3A. It counts as biochemical. The method, then:
DNMT3A enzyme inhibition was adapted from the restriction-based fluorescence assay protocol described in Ceccaldi et al.. Briefly, it is performed in a 384-well microplate in a total volume of 50 μL. An oligonucleotide labeled at the 5′ end with biotin is hybridized to his complementary strand labeled at the 3′ end with 6-carboxyfluorescein. The DNA duplex thus formed contains only one single CpG site overlapping with a restriction site of a methylation sensitive restriction enzyme. The duplex is transferred in the wells coated with avidin. Thus, the duplex is fixed to the plate. The methylation reaction is performed by adding human C-terminal DNMT3A at the final concentration of 4 ng/μL in a total volume of 50 μL in the presence of the chemical compound to be tested at the desired concentration and the cofactor SAM at the final concentration of 20 μM. After incubation (1 h at 37 °C), the plate is washed and the methylation sensitive restriction enzyme HpyCH4IV is added. After 1-h incubation at 37 °C, the plate is washed and the fluorescence measured with a PerkinElmer Envision Multilabel Plate Reader (PerkinElmer, Villebon-sur-Yvette, France). The data are expressed as a percentage of inhibition vs. log concentration (M). Data are normalized referring to the “restriction control” (wells coated with labeled duplex not treated nor exposed to DNMT3A, but only cleaved by HpyCH4IV) as the maximum of inhibition (100%) and to the “DMSO control” (wells coated with labeled duplex but treated just with 0.1% DMSO exposed to DNMT3A and then to HpyCH4IV) as the minimum of inhibition (0%; total methylation).

On to `Nc1ncn([C@@H]2O[C@H](CO)[C@@H](O)[C@H]2O)c(=O)n1` [Compound 5-AZA, 5-azacytidine], for which, in assay [1], the “MMP2 mRNA expression, HCT116” value is “increased MMP2 level”. Moreover, the “EGFP gene expression induction (FACS)” value in assay [2] worked out at 38.5%. Moreover, the “effect on HCT116 proliferation (MTT)” value in the assay on HCT116 cells is “negligible effect”. The “MMP2 mRNA expression, PC-3” value with MMP2 mRNA in PC-3 cells is listed as “increased MMP2 level”. Also, in [3], the “effect on DKO HCT116 proliferation (MTT)” value is reported as “weak effect”. The “E-cadherin mRNA expression, HCT116” value in assay [4] was “able to induce E-cadherin expression”. Besides, in assay [5], the “E-cadherin mRNA expression, PC-3” value is “able to induce E-cadherin expression”.

The term EC50 denotes the concentration giving half of the maximal effect. Consider `O=C(O)C(Cc1c[nH]c2ccccc12)N1C(=O)c2ccccc2C1=O` (stereo not drawn) [RG-108, reference compound], for which the EC50 on human DNMT1 is 390 ± 50 µM; at human C-terminal DNMT3A, more than 500 µM.
